Data as given in ChEMBL document CHEMBL1201862, “PubChem BioAssay data set” (2004).
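Following 48 hours of exposure in 96-well plates, responses at five concentrations were used to interpolate endpoints linearly. GI50 marks 50% less growth.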 Active and inactive are the calls of the source. Cut-off read from the data, not from the text of the source: active = GI50 up to about 1.1 µM and inactive = higher.

Tests used:
Assay in all cases: NCI anticancer screen, dose series, 48 h
OVCAR-4 = system: OVCAR-4
MOLT-4 = system: MOLT-4
TK-10 = system: TK-10
EKVX = system: EKVX
DMS-273 = system: DMS-273
A549 = system: A549
HOP-62 = system: HOP-62
NCI-H522 = system: NCI-H522
K562 = system: K562
OVCAR-8 = system: OVCAR-8
HOP-92 = system: HOP-92
HCT-15 = system: HCT-15
SK-OV-3 = system: SK-OV-3
HCC 2998 = system: HCC 2998
IGROV-1 = system: IGROV-1
XF498 = system: XF498
SN12C = system: SN12C
HCT-116 = system: HCT-116
HOP-18 = system: HOP-18
SNB-78 = system: SNB-78
SF-268 = system: SF-268
OVCAR-5 = system: OVCAR-5
SK-MEL-28 = system: SK-MEL-28
786-0 = system: 786-0
CAKI-1 = system: CAKI-1
A498 = system: A498
OVCAR-3 = system: OVCAR-3
SNB-19 = system: SNB-19
HT-29 = system: HT-29
UO-31 = system: UO-31
NCI-H23 = system: NCI-H23
DMS-114 = system: DMS-114
UACC-62 = system: UACC-62
M14 = system: M14
KM12 = system: KM12
SK-MEL-5 = system: SK-MEL-5
NCI-H460 = system: NCI-H460
RXF 631 = system: RXF 631
LOX IMVI = system: LOX IMVI
UACC-257 = system: UACC-257
COLO 205 = system: COLO 205
SNB-75 = system: SNB-75
DLD-1 = system: DLD-1
CCRF-CEM = system: CCRF-CEM
SK-MEL-2 = system: SK-MEL-2
LXFL 529 = system: LXFL 529
U-251 = system: U-251
SW-620 = system: SW-620
ACHN = system: ACHN
M19-MEL = system: M19-MEL
RPMI-8226 = system: RPMI-8226
SF-539 = system: SF-539
NCI-H226 = system: NCI-H226
Malme-3M = system: Malme-3M
KM-20L2 = system: KM-20L2
HL-60 = system: HL-60
SF-295 = system: SF-295

Measured: GI50

Nc1ccc(N)c2c1C(=O)c1ccccc1C2=O
4.41 µM: HCT-15
inactive: OVCAR-4 > 100 µM | MOLT-4 13.4 µM | TK-10 4.08 µM | EKVX 87.5 µM | DMS-273 16 µM | A549 24.4 µM | HOP-62 5.01 µM | NCI-H522 9.48 µM | K562 27.6 µM | OVCAR-8 76.2 µM | HOP-92 36.2 µM | SK-OV-3 2.49 µM | HCC 2998 3.97 µM | IGROV-1 6.44 µM | XF498 > 100 µM | SN12C 13.2 µM | HCT-116 11.1 µM | HOP-18 22 µM | SNB-78 > 100 µM | SF-268 51.3 µM | OVCAR-5 > 100 µM | SK-MEL-28 > 100 µM | 786-0 78.7 µM | CAKI-1 4.57 µM | A498 7.35 µM | OVCAR-3 43.9 µM | SNB-19 > 100 µM | HT-29 57.9 µM | UO-31 12.4 µM | NCI-H23 17.7 µM | DMS-114 32.7 µM | UACC-62 15.7 µM | M14 17.7 µM | KM12 4.54 µM | SK-MEL-5 15.8 µM | NCI-H460 9.51 µM | RXF 631 20.4 µM | LOX IMVI 9.02 µM | UACC-257 > 100 µM | COLO 205 17.8 µM | SNB-75 > 100 µM | DLD-1 5.83 µM | CCRF-CEM 32.1 µM | SK-MEL-2 79.1 µM | LXFL 529 31.1 µM | U-251 17.3 µM | SW-620 32.7 µM | ACHN 4.66 µM | M19-MEL 95.5 µM | RPMI-8226 9.16 µM | SF-539 34.4 µM | NCI-H226 > 100 µM | Malme-3M 24 µM | KM-20L2 14.4 µM

COC(=O)C1CC/C(=N\c2cccc(C(F)(F)F)c2)N1 (stereo not drawn)
inactive: OVCAR-4 > 100 µM | MOLT-4 > 100 µM | TK-10 > 100 µM | EKVX > 100 µM | DMS-273 > 100 µM | A549 > 100 µM | HOP-62 > 100 µM | NCI-H522 > 100 µM | K562 > 100 µM | OVCAR-8 > 100 µM | HOP-92 > 100 µM | SK-OV-3 > 100 µM | HCC 2998 > 100 µM | IGROV-1 > 100 µM | XF498 > 100 µM | SN12C > 100 µM | HCT-116 > 100 µM | HOP-18 > 100 µM | SNB-78 > 100 µM | SF-268 > 100 µM | OVCAR-5 > 100 µM | SK-MEL-28 > 100 µM | 786-0 > 100 µM | CAKI-1 > 100 µM | A498 > 100 µM | OVCAR-3 > 100 µM | SNB-19 > 100 µM | HT-29 > 100 µM | UO-31 > 100 µM | NCI-H23 > 100 µM | DMS-114 > 100 µM | UACC-62 > 100 µM | M14 > 100 µM | KM12 > 100 µM | NCI-H460 > 100 µM | RXF 631 > 100 µM | LOX IMVI > 100 µM | UACC-257 > 100 µM | COLO 205 > 100 µM | SNB-75 > 100 µM | DLD-1 > 100 µM | CCRF-CEM > 100 µM | SK-MEL-2 > 100 µM | LXFL 529 > 100 µM | U-251 > 100 µM | HL-60 > 100 µM | SF-295 > 100 µM | SW-620 > 100 µM | ACHN > 100 µM | RPMI-8226 > 100 µM | NCI-H226 > 100 µM | Malme-3M > 100 µM
> 100 µM: HCT-15
